{"source": "patent US20120101164A1", "about": "“ABSCISSION AND CROP STORAGE UNIT” (TAMINCO, NAAMLOZE VENNOOTSCHAP, priority 2009, published 2012)", "type_in_all_cases": "in vivo", "key": {"[1]": {"test_system": "PAPAVER Nudicaule (Iceland Poppy)", "assay": "Petal abscission delay, auxins/precursors with or without AC", "details": "for change in vivo at 10000 µM: Papaver nudicaule; for Total Duration of Flowering (to petal fall): auxin/precursor 10^-2 Molar solution, AC 3 g per hectare equivalent", "method": "(§1) Cultural Details: plants were sown in a commercial seed compost and then “pricked out” into a professional grade all-purpose compost in 9 cm pots set out in a randomized block design. Normal daylight plus supplementary lighting to provide a minimum of 10 hours per day. Heating was given to a minimum of 60 degrees Fahrenheit during the day and 40 degrees at night.\nSowing Date: 18 Nov. […] Application Date: 5 Jan.\nMeasurement Date: 12 Jan.\nA number of auxins or auxin precursors were applied, each at 10^−2 Molar solutions. Addition of acetaminophen (AC) was at 3 g per hectare equivalent in each test. Measurement: Delay of first petal fall for each treatment (in days)."}, "[2]": {"test_system": "RADISH—cv F1 Apache", "assay": "Post-harvest shelf-life, AN or AN + AC with additives", "details": "for Shelf-Life Duration (days after harvest): AN 1 g per hectare, AC 3 g per hectare, additive rate per ha as in label", "method": "(§2) To each were added certain agrochemically acceptable additives, as examples.\nas §1\nSowing Date: 28 Jan. 2010, in plugs. Application Date: 5 Mar. 2010.\nMeasurement Date: 13 Mar. 2010. • Measurement: Shelf-life duration (days)."}, "[3]": {"test_system": "PAPAVER Nudicaule (Iceland Poppy)", "assay": "Petal abscission delay, AN or AN + AC with additives", "details": "for Total Duration of Flowering (to petal fall): AN 1 g per hectare, AC 3 g per hectare, additive rate per ha as in label", "method": "as §2, §1\nSowing Date: 19 Dec. 2009, in plugs. Application Date: 7 Feb. 2010.\nMeasurement Date: 12 Feb. 2010, at daily intervals.\nMeasurement: Delay of first petal-fall for each treatment (in days)."}, "[4]": {"test_system": "RADISH—cv F1 Apache", "assay": "Post-harvest shelf-life, auxins/precursors with or without AC", "details": "for change in vivo at 10000 µM: Raphanus sativus; for Shelf-Life Duration (days after harvest): ambient temperature, auxin/precursor 10^-2 Molar, AC 3 g per hectare equivalent, two applications", "method": "as §1\nSowing Date: 3 Nov. […] Application Dates: 28 Dec. […] Harvest Date: 11 Jan. […] Measurement: Shelf-Life (days after harvest) at ambient temperature.\nA number of auxins or auxin precursors were compared, each at 10^−2 Molar solutions. Addition of acetaminophen (AC) was at 3 g per hectare equivalent in each test."}, "[5]": {"details": "duration of flowering, read-out: % Improvement over control"}, "[6]": {"details": "shelf-life, read-out: % Improvement over control"}, "[7]": {"details": "read-out: % Improvement over control, duration of flowering"}, "[8]": {"details": "read-out: % Improvement over control, shelf-life"}, "[9]": {"details": "read-out: % Improvement over control"}}, "note": "Read-outs that look alike come from different tables or passages of the source."}
{"smiles": "CC(=O)Nc1ccc(O)cc1", "note": "[AC, N-(4-hydroxypheyl)acetamide, reference compound]", "values": [{"measurement": "change in vivo at 10000 µM", "setting": "[1]; [5]", "value": 0, "unit": "%"}, {"measurement": "Total Duration of Flowering (to petal fall)", "setting": "[1]", "value": 9.9, "unit": "days"}, {"measurement": "Shelf-Life Duration (days after harvest)", "setting": "[2]", "value": 5.8, "unit": "days"}, {"measurement": "Total Duration of Flowering (to petal fall)", "setting": "[3]", "value": 8.8, "unit": "days"}, {"measurement": "change in vivo at 10000 µM", "setting": "[4]; [6]", "value": 0, "unit": "%"}, {"measurement": "Shelf-Life Duration (days after harvest)", "setting": "[4]", "value": 6.2, "unit": "days"}]}
{"smiles": "NCCc1c[nH]c2ccccc12", "note": "[Tryptamine]", "values": [{"measurement": "change in vivo at 10000 µM", "setting": "[1]; [7]", "value": 19.4, "unit": "%"}, {"measurement": "Total Duration of Flowering (to petal fall)", "setting": "[1]", "value": 11.7, "unit": "days"}, {"measurement": "change in vivo at 10000 µM", "setting": "[4]; [8]", "value": 11.1, "unit": "%"}, {"measurement": "Shelf-Life Duration (days after harvest)", "setting": "[4]", "value": 7.0, "unit": "days"}]}
{"smiles": "N[C@@H](Cc1c[nH]c2ccccc12)C(=O)O", "note": "[L-Tryptophan]", "values": [{"measurement": "change in vivo at 10000 µM", "setting": "[1]; [9]", "value": 10.2, "unit": "%"}, {"measurement": "Total Duration of Flowering (to petal fall)", "setting": "[1]", "value": 10.8, "unit": "days"}, {"measurement": "change in vivo at 10000 µM", "setting": "[4]; [9]", "value": 3.2, "unit": "%"}, {"measurement": "Shelf-Life Duration (days after harvest)", "setting": "[4]", "value": 6.5, "unit": "days"}]}
{"smiles": "Nc1ccccc1C(=O)O", "note": "[Anthranilic acid, anthranilic acid]", "values": [{"measurement": "Total Duration of Flowering (to petal fall)", "setting": "[1]", "value": 12.2, "unit": "days"}, {"measurement": "% Improvement over control", "setting": "[1]; duration of flowering", "value": "+24.5%"}, {"measurement": "Shelf-Life Duration (days after harvest)", "setting": "[2]", "value": 8.5, "unit": "days"}, {"measurement": "% Improvement over untreated", "setting": "[2]; shelf-life", "value": "+44.1%"}, {"measurement": "Total Duration of Flowering (to petal fall)", "setting": "[3]", "value": 10.9, "unit": "days"}, {"measurement": "% Improvement over appropriate control (ie AN or AN + AC)", "setting": "[3]; duration of flowering", "value": "+0.0%"}, {"measurement": "% Improvement over untreated", "setting": "[3]; duration of flowering", "value": "+23.9%"}, {"measurement": "Shelf-Life Duration (days after harvest)", "setting": "[4]", "value": 8.6, "unit": "days"}, {"measurement": "% Improvement over control", "setting": "[4]; shelf-life", "value": "+36.5%"}]}
{"smiles": "COC(=O)c1ccccc1N", "note": "[Anthranilic acid methyl ester]", "values": [{"measurement": "change in vivo at 10000 µM", "setting": "[1]; [7]", "value": 23.5, "unit": "%"}, {"measurement": "Total Duration of Flowering (to petal fall)", "setting": "[1]", "value": 12.1, "unit": "days"}, {"measurement": "change in vivo at 10000 µM", "setting": "[4]; [8]", "value": 38.1, "unit": "%"}, {"measurement": "Shelf-Life Duration (days after harvest)", "setting": "[4]", "value": 8.7, "unit": "days"}]}
{"smiles": "NC(=O)Cc1c[nH]c2ccccc12", "note": "[Indole-3-acetamide]", "values": [{"measurement": "change in vivo at 10000 µM", "setting": "[1]; [5]", "value": 21.4, "unit": "%"}, {"measurement": "Total Duration of Flowering (to petal fall)", "setting": "[1]", "value": 11.9, "unit": "days"}, {"measurement": "change in vivo at 10000 µM", "setting": "[4]; [6]", "value": 3.2, "unit": "%"}, {"measurement": "Shelf-Life Duration (days after harvest)", "setting": "[4]", "value": 6.5, "unit": "days"}]}
{"smiles": "Nc1ccccc1C(=O)[O-].[Na+]", "note": "[Anthranilic Acid monosodium salt]", "values": [{"measurement": "change in vivo at 10000 µM", "setting": "[1]; [7]", "value": 19.4, "unit": "%"}, {"measurement": "Total Duration of Flowering (to petal fall)", "setting": "[1]", "value": 11.7, "unit": "days"}, {"measurement": "change in vivo at 10000 µM", "setting": "[4]; [8]", "value": 22.2, "unit": "%"}, {"measurement": "Shelf-Life Duration (days after harvest)", "setting": "[4]", "value": 7.7, "unit": "days"}]}
{"smiles": "CC(N)=O", "note": "[Acetamide]", "values": [{"measurement": "change in vivo at 10000 µM", "setting": "[1]; [5]", "value": 19.4, "unit": "%"}, {"measurement": "Total Duration of Flowering (to petal fall)", "setting": "[1]", "value": 11.7, "unit": "days"}, {"measurement": "change in vivo at 10000 µM", "setting": "[4]; [6]", "value": 38.1, "unit": "%"}, {"measurement": "Shelf-Life Duration (days after harvest)", "setting": "[4]", "value": 8.7, "unit": "days"}]}
{"smiles": "Nc1c(O)cccc1C(=O)O", "note": "[3-Hydroxyanthranilic acid]", "values": [{"measurement": "change in vivo at 10000 µM", "setting": "[1]; [5]", "value": 18.4, "unit": "%"}, {"measurement": "Total Duration of Flowering (to petal fall)", "setting": "[1]", "value": 11.6, "unit": "days"}, {"measurement": "change in vivo at 10000 µM", "setting": "[4]; [6]", "value": 15.9, "unit": "%"}, {"measurement": "Shelf-Life Duration (days after harvest)", "setting": "[4]", "value": 7.3, "unit": "days"}]}
